This is an account of results in ChEMBL document CHEMBL1667741, “Rational design, synthesis, and characterization of highly fluorescent optical switches for high-contrast optical lock-in detection (OLID) imaging microscopy in living cells” (Bioorg Med Chem, 2011).

Common to all, as to assay type: ADME, cell-based
What all share (conditions): nih3t3

The nature of series [1]: Drug uptake in mouse NIH/3T3 cells assessed as fluorescent optical switching measured after continuous irradiation at 546 and 365 nm light by optical lock-in detection imaging microscopy.
Series [2] can be described thus: Drug uptake in mouse NIH/3T3 cells assessed as fluorescent optical switching measured after every 2 s with 100 ms pulse of 365 nm irradiation by optical lock-in detection imaging microscopy.
The nature of series [3]: Drug uptake in mouse NIH/3T3 cells assessed as fluorescent optical switching measured after continuous irradiation at 546 nm light by optical lock-in detection imaging microscopy. Set-up: dose or concentration left out as unconfirmed.

For the compound `CN(C)c1ccc2c(-c3ccc(C(=O)NCc4cccc5c4C(C)(C)C4(C=Nc6c(ccc7ccccc67)O4)N5C)cc3C(=O)[O-])c3ccc(=[N+](C)C)cc-3oc2c1` (centres undefined), the Drug uptake entry in series [1] and in series [2] was “Active” throughout. On to `COc1ccc2ccc3c(c2c1)N=CC1(O3)N(C)c2cccc(CNC(=O)c3ccc(-c4c5ccc(=[N+](C)C)cc-5oc5cc(N(C)C)ccc45)c(C(=O)[O-])c3)c2C1(C)C` (centres undefined), for which the Drug uptake entry in series [1] and in series [3] was “Active” each time. On to `CN(C)c1ccc2c(-c3ccc(C(=O)NCc4cccc5c4C(C)(C)C4(C=Nc6c(ccc7ccc(O)cc67)O4)N5C)cc3C(=O)[O-])c3ccc(=[N+](C)C)cc-3oc2c1` (centres undefined), for which the Drug uptake result in series [1] was “Active”.

For the compound `CN(C)c1ccc2c(-c3ccc(C(=O)NCCc4ccc5c(c4)C(C)(C)C4(C=Nc6c(ccc7ccccc67)O4)N5C)cc3C(=O)[O-])c3ccc(=[N+](C)C)cc-3oc2c1` (centres undefined), the Drug uptake result in series [1] is given as “Active”. Same read-out and setting: as for `CN(C)c1ccc2c(-c3ccc(C(=O)NC(CCCCNC(=O)CCCc4ccc5c(c4)C(C)(C)C4(C=Nc6c(ccc7ccccc67)O4)N5C)C(=O)O)cc3C(=O)[O-])c3ccc(=[N+](C)C)cc-3oc2c1` (centres undefined), the entry is “Active”; as for `CN(C)c1ccc2c(-c3ccc(C(=O)NCCCOc4ccc5ccc6c(c5c4)N=CC4(O6)N(C)c5ccc(CCCC(=O)ON6C(=O)CCC6=O)cc5C4(C)C)cc3C(=O)[O-])c3ccc(=[N+](C)C)cc-3oc2c1` (centres undefined), “Active”; as for `CN(C)c1ccc2c(-c3ccc(C(=O)NCCCOc4ccc5ccc6c(c5c4)N=CC4(O6)N(CCCCCC(=O)ON5C(=O)CCC5=O)c5ccccc5C4(C)C)cc3C(=O)[O-])c3ccc(=[N+](C)C)cc-3oc2c1` (centres undefined), “Active”.
